From patent US20110152088A1, “Herbicidal Composition Comprising Flufenacet” (BAYER CROPSCIENCE AG, priority 2009, published 2011)

Columns and labels:
LOLPE [1] = experiment: Greenhouse trial: different soil types (test method 8); assay type: in vivo, Lolium perenne; conditions: g of AS/ha: (A) 120, (B) 1200, (C) 90, (A)+(B)+(C) 120 + 1200 + 90
Protocol: (§1) In the standard design of the test, seeds of various broad-leaved weed and weed grass biotypes (origins) were sown in a 8-13 cm diameter pot filled with natural soil of a standard field soil (loamy silt; non-sterile) and covered with a covering soil layer of about 1 cm. The pots were then cultivated in a greenhouse (12-16 h of light, temperature day 20-22° C., night 15-18° C.) until the time of application. The pots were treated on a laboratory track sprayer with spray liquors comprising the compositions according to the invention, mixtures of the prior art or components used individually. Application of the active compounds or active compound combinations formulated as WG, WP, EC or otherwise was carried out at the appropriate growth stages of the plants. The application rate for the spray application was 100-600 l of water/ha. After the treatment, the plants were returned to the greenhouses.
(§2) About 3 weeks after the application, the soil action or/and foliar action was assessed visually according to a scale of 0-100% in comparison to an untreated comparative group: 0%=no noticeable effect compared to the untreated comparative group; 100%=full effect compared to the untreated comparative group.
(§3) (notes: the term “seeds” also includes vegetative propagation forms such as, for example, rhizome pieces; abbreviations used: h light=hours of illumination, g of AS/ha=gram of active substance per hectare, I/ha=liter per hectare, S=sensitive, R=resistant) • 1. Pre-emergence action against weeds: seeds of various broad-leaved weed and weed grass biotypes (origins) were sown in a 8-13 cm diameter pot filled with natural soil of a standard field soil (loamy silt; non-sterile) and covered with a covering soil layer of about 1 cm. The pots were then cultivated in a greenhouse (12-16 h of light, temperature day 20-22° C., night 15-18° C.) until the time of application. The pots were treated at the BBCH stage 00-10 of the seeds/plants on a laboratory track sprayer with spray liquors comprising the compositions according to the invention, mixtures or components used individually, as WG, WP, EC or other formulations. The application rate for the spray application was 100-600 l of water/ha. After the treatment, the plants were returned to the greenhouses and, when required, treated with fertilizer and watered. • 2. Post-emergence action against weeds: seeds of various broad-leaved weed and weed grass biotypes (origins) were sown in a 8-13 cm diameter pot filled with natural soil of a standard field soil (loamy silt; non-sterile) and covered with a covering soil layer of about 1 cm. The pots were then cultivated in a greenhouse (12-16 h of light, temperature day 20-22° C., night 15-18° C.) until the time of application. The pots were treated at various BBCH stages between 11-25 of the seeds/plants, i.e. generally between two to three weeks after the start of the cultivation, on a laboratory track sprayer with spray liquors comprising the compositions according to the invention, mixtures or components used individually, as WG, WP, EC or other formulations. The application rate for the spray application was 100-600 l of water/ha. After the treatment, the plants were returned to the greenhouses and, when required, treated with fertilizer and watered. • 3. Pre-emergence action against weeds with and without incorporation of active compound: seeds of various broad-leaved weed and weed grass biotypes (origins) were sown in a 8-13 cm diameter pot filled with natural soil of a standard field soil (loamy silt; non-sterile). […]

LOLSS = experiment: Greenhouse trial: resistant biotypes following PE application (test method 9); assay type: in vivo, Lolium species; conditions: g of AS/ha: (A) 90, (B) 1200, (C) 140, (A)+(B)+(C) 90 + 1200 + 140, iodosulfuron 10; for activity LOLSS resistant / activity LOLSS sensitive: PE; for activity LOLSS resistant: resistant biotype; for activity LOLSS sensitive: sensitive biotype
Protocol: as §1, §2, §3

LOLPE [2] = experiment: Greenhouse trial: PE application with different irrigation variants (test method 7); assay type: in vivo, Lolium perenne; conditions: g of AS/ha: (A) 120, (B) 1200, (C) 140, (A)+(B)+(C) 120 + 1200 + 140
Protocol: as §1, §2, §3

STEME = experiment: Greenhouse trial: resistant biotypes following PE application (test method 9); assay type: in vivo, Stellaria media; conditions: PE, g of AS/ha: (A) 90, (B) 1200, (C) 140, (A)+(B)+(C) 90 + 1200 + 140, iodosulfuron 10; for activity STEME resistant: resistant biotype; for activity STEME sensitive: sensitive biotype
Protocol: as §1, §2, §3

AVEFA [3] = experiment: Greenhouse trial: PE application vs application 7 days prior to sowing (test method 6); assay type: in vivo, Avena fatua
Protocol: as §1, §2, §3

APESV [4] = experiment: Greenhouse trial: PO application (test methods 2 and 5); assay type: in vivo, Apera Spica-venti; conditions: g of AS/ha: (A) 120, (B) 1600, (C) 140, (A)+(B)+(C) 120 + 1600 + 140
Protocol: as §1, §2
(§4) (notes: the term “seeds” also includes vegetative propagation forms such as, for example, rhizome pieces; abbreviations used: h light=hours of illumination, g of AS/ha=gram of active substance per hectare, I/ha=liter per hectare, S=sensitive, R=resistant) • 1. Pre-emergence action against weeds: seeds of various broad-leaved weed and weed grass biotypes (origins) were sown in a 8-13 cm diameter pot filled with natural soil of a standard field soil (loamy silt; non-sterile) and covered with a covering soil layer of about 1 cm. The pots were then cultivated in a greenhouse (12-16 h of light, temperature day 20-22° C., night 15-18° C.) until the time of application. […]

MATCH [5] = experiment: Greenhouse trial: different sowing depths on PE application (test method 10); assay type: in vivo, Matricaria chamomilla; conditions: g of AS/ha: (A) 90, (B) 1200, (C) 140, (A)+(B)+(C) 90 + 1200 + 140; for activity MATCH 5 mm: sowing depth 5 mm; for activity MATCH 20 mm: sowing depth 20 mm
Protocol: as §1, §2, §3

POAAN [6] = experiment: Greenhouse trial: PE soil application vs incorporation into the soil (test methods 1, 3 and 4); assay type: in vivo, Poa annua; conditions: g of AS/ha: (A) 120, (B) 1200, (C) 140, (A)+(B)+(C) 120 + 1200 + 140
Protocol: as §1, §2, §3

AVEFA [7] = experiment: Greenhouse trial: PE application with different irrigation variants (test method 7); assay type: in vivo, Avena fatua; conditions: g of AS/ha: (A) 120, (B) 1200, (C) 140, (A)+(B)+(C) 120 + 1200 + 140
Protocol: as §1, §2, §3

MATCH [8] = experiment: Greenhouse trial: different soil types (test method 8); assay type: in vivo, Matricaria chamomilla; conditions: g of AS/ha: (A) 120, (B) 1200, (C) 140, (A)+(B)+(C) 120 + 1200 + 140
Protocol: as §1, §2, §3

POAAN [9] = experiment: Greenhouse trial: PO application (test methods 2 and 5); assay type: in vivo, Poa annua; conditions: g of AS/ha: (A) 120, (B) 1600, (C) 140, (A)+(B)+(C) 120 + 1600 + 140
Protocol: as §1, §2, §4

APESV [10] = experiment: Greenhouse trial: different sowing depths on PE application (test method 10); assay type: in vivo, Apera Spica-venti; conditions: g of AS/ha: (A) 90, (B) 1200, (C) 140, (A)+(B)+(C) 90 + 1200 + 140; for activity APESV 5 mm: sowing depth 5 mm; for activity APESV 20 mm: sowing depth 20 mm
Protocol: as §1, §2, §3

LOLPE [11] = experiment: Greenhouse trial: PE application vs application 7 days prior to sowing (test method 6); assay type: in vivo, Lolium perenne
Protocol: as §1, §2, §3

MATCH [12] = experiment: Greenhouse trial: PE application with different irrigation variants (test method 7); assay type: in vivo, Matricaria chamomilla; conditions: g of AS/ha: (A) 120, (B) 1200, (C) 140, (A)+(B)+(C) 120 + 1200 + 140
Protocol: as §1, §2, §3

HORVS [13] = experiment: Greenhouse trial: different soil types (test method 8); assay type: in vivo, Hordeum vulgare, summer barley; conditions: g AS/ha: (A) 120, (B) 1200, (C) 140, (A)+(B)+(C) 120 + 1200 + 140
Protocol: as §1, §2, §4

TRZAS [14] = experiment: Greenhouse trial: PE soil application vs incorporation into the soil (test methods 1, 3 and 4); assay type: in vivo, Triticum aestivum, summer wheat; conditions: g of AS/ha: (A) 120, (B) 1200, (C) 140, (A)+(B)+(C) 120 + 1200 + 140
Protocol: as §1
as §2, with “group. […]” for “group.”

HORVS [15] = experiment: Greenhouse trial: PE application vs application 7 days prior to sowing (test method 6); assay type: in vivo, Hordeum vulgare, summer barley; conditions: g of AS/ha: (A) 90, (B) 1200, (C) 140, mixture 90 + 1200 + 140
Protocol: as §1
as §2, with “group. […]” for “group.”

HORVS [16] = experiment: Greenhouse trial: PO application (test methods 2 and 5); assay type: in vivo, Hordeum vulgare, summer barley; conditions: g of AS/ha: (A) 120, (B) 1600, (C) 140, (A)+(B)+(C) 120 + 1600 + 140
Protocol: as §1
as §2, with “group. […]” for “group.”

TRZAS [17] = experiment: Greenhouse trial: PE application vs application 7 days prior to sowing (test method 6); assay type: in vivo, Triticum aestivum, summer wheat; conditions: g of AS/ha: (A) 90, (B) 1200, (C) 140, (A)+(B)+(C) 90 + 1200 + 140
Protocol: as §1
as §2, with “group. […]” for “group.”

[18] = PE application, g of AS/ha: (A) 90, (B) 1200, (C) 140, mixture 90 + 1200 + 140
[19] = application 7 days prior to sowing, g of AS/ha: (A) 90, (B) 1200, (C) 140, (A)+(B)+(C) 90 + 1200 + 140

Compound | activity LOLPE IU soil (LOLPE [1]) [%] | activity LOLPE IU/EC73 soil (LOLPE [1]) [%] | activity LOLSS resistant (LOLSS) [%] | activity LOLSS sensitive (LOLSS) [%] | activity LOLPE (LOLPE [2]; Irrigation from above) [%] | activity LOLPE (LOLPE [2]; Irrigation from below) [%] | activity STEME resistant (STEME) [%] | activity STEME sensitive (STEME) [%] | activity AVEFA (AVEFA [3]; [18]) [%] | activity AVEFA (AVEFA [3]; [19]) [%] | activity APESV (APESV [4]) [%] | activity MATCH 5 mm (MATCH [5]) [%] | activity MATCH 20 mm (MATCH [5]) [%] | activity POAAN (POAAN [6]; Incorporation) [%] | activity POAAN (POAAN [6]; PE application) [%] | activity AVEFA (AVEFA [7]; Irrigation from above) [%] | activity AVEFA (AVEFA [7]; Irrigation from below) [%] | activity MATCH IU soil (MATCH [8]) [%] | activity MATCH IU/EC73 soil (MATCH [8]) [%] | activity POAAN (POAAN [9]) [%] | also measured
CCCN(CCC)C(=O)SCc1ccccc1 [(B) prosulfocarb, S-(phenylmethyl) dipropylcarbamothioate] | 0 | 0 | 65 | 85 | 10 | 5 | 40 | 70 | 80 | 10 | 20 | 0 | 0 | 85 | 35 | 5 | 10 | 10 | 0 | 30 | Difference of the soil types Δ^D, LOLPE (LOLPE [1]; IU/EC73 soil vs IU soil): Δ^D + 0%; activity APESV 5 mm (APESV [10]): 50%; activity APESV 20 mm (APESV [10]): 20%; activity LOLPE (LOLPE [11]; [18]): 80%; activity LOLPE (LOLPE [11]; [19]): 0%; activity MATCH (MATCH [12]; Irrigation from above): 0%; activity MATCH (MATCH [12]; Irrigation from below): 0%
CSc1nnc(C(C)(C)C)c(=O)n1N [(C) metribuzin, 4-amino-6-(1,1-dimethylethyl)-3-(methylthio)-1,2,4-triazon-5(4H)-one] | 75 | 5 | 70 | 70 | 55 | 48 | 98 | 100 | 10 | 0 | 79 | 100 | 70 | 68 | 0 | 30 | 30 | 0 | 15 | 79 | activity HORVS IU soil (crop plant) (HORVS [13]; IU soil): 0%; Difference of the soil types, HORVS (HORVS [13]; IU/EC73 soil vs IU soil): 0%; activity HORVS IU/EC73 soil (crop plant) (HORVS [13]; IU/EC73 soil): 0%; Difference Δ^D activity resistant to activity sensitive, LOLSS (LOLSS): Δ^D ± 0%; activity TRZAS (crop plant) (TRZAS [14]; Incorporation): 100%; activity TRZAS (crop plant) (TRZAS [14]; PE application): 65%; activity HORVS (crop plant) (HORVS [15]): 50%; activity HORVS (crop plant) (HORVS [16]): 70%; Difference of the soil types Δ^D, MATCH (MATCH [8]; IU/EC73 soil vs IU soil): Δ^D + 5%; activity APESV 5 mm (APESV [10]): 75%; activity APESV 20 mm (APESV [10]): 100%; activity TRZAS (crop plant) (TRZAS [17]): 30%; activity LOLPE (LOLPE [11]; [18]): 70%; activity LOLPE (LOLPE [11]; [19]): 0%; activity MATCH (MATCH [12]; Irrigation from above): 0%; activity MATCH (MATCH [12]; Irrigation from below): 60%
